The record followed here is publication PMC7915724 (2021).

For experiment [1], the system named is biotin-Pu24 (VEGF G-quadruplex) (DNA, G4) CCGGGGCGGGCCGGGGGCGGGGTC
Nature of the experiment: SPR. To be noted: 100 mM KCl; 20 mM Tris-HCl pH 7.4, 25 °C; tested up to 50 μM.

In experiment [2] the test system is biotin-Hairpin (duplex DNA) (DNA, hairpin, HEG (hexaethylene glycol) linker between 10 and 11) TATAGCTATATATAGCTATA
The experiment is described as follows: SPR. To be noted: 100 mM KCl; 20 mM Tris-HCl pH 7.4, 25 °C; tested up to 50 μM.

In experiment [3] the test system is biotin-Py24 (VEGF i-motif) (DNA, i motif) GACCCCGCCCCCGGCCCGCCCCGG
Nature of the experiment: SPR. The settings on record: 100 mM KCl, 20 mM MES pH 5.5, 0.05% Tween-20, 25 °C.

The subject of experiment [4] is FBCL2 (DNA, i motif) CAGCCCCGCTCCCGCCCCCTTCCTCCCGCGCCCGCCCCT
The experiment is described as follows: MST. The settings on record: 100 mM KCl (annealing buffer); 1 μM DNA; assay pH not stated.

Experiment [5] has as its system FPDGFR-β (DNA, i motif) GCGTCCACCCTCCCTGCCCCGCCGCCCCCCCTTCTCCCAGC
The experiment is described as follows: MST. To be noted: 100 mM KCl (annealing buffer); 1 μM DNA; assay pH not stated.

Experiment [6] has as its system Pu24 (VEGF G-quadruplex) (DNA, G4) CCGGGGCGGGCCGGGGGCGGGGTC
The experiment is described as follows: TO displacement, fluorescence. The settings on record: 100 mM KCl (annealing buffer); 1 μM DNA, 2 μM thiazole orange displaced; assay pH not stated.

In experiment [7] the test system is Py24 (VEGF i-motif) (DNA, i motif) GACCCCGCCCCCGGCCCGCCCCGG
The experiment is described as follows: TO displacement, fluorescence. To be noted: 100 mM KCl (annealing buffer); 1 μM DNA, 2 μM thiazole orange displaced; assay pH not stated.

Experiment [8] relates to c-kit (DNA, i motif) CCCCTCCCTCGCGCCCGCCCG
The experiment is described as follows: TO displacement, fluorescence. The settings on record: 100 mM KCl (annealing buffer); 1 μM DNA, 2 μM thiazole orange displaced; assay pH not stated.

Experiment [9] deals with BCL2 (DNA, i motif) CAGCCCCGCTCCCGCCCCCTTCCTCCCGCGCCCGCCCCT
Nature of the experiment: TO displacement, fluorescence. The settings on record: 100 mM KCl (annealing buffer); 1 μM DNA, 2 μM thiazole orange displaced; assay pH not stated.

Experiment [10] relates to KRAS (DNA, i motif) GCCCGGCCCCCGCTCCTCCCCCGCCGGCCCGGCCCGGCCCCCTCCTTCTCCCCG
Nature of the experiment: TO displacement, fluorescence. To be noted: 100 mM KCl (annealing buffer); 1 μM DNA, 2 μM thiazole orange displaced; assay pH not stated.

Experiment [11] deals with Py24 (VEGF i-motif) (DNA, i motif) GACCCCGCCCCCGGCCCGCCCCGG
Nature of the experiment: ITC. The settings on record: 100 mM KCl, 30 mM KH2PO4, 30 mM K2HPO4; 1× BPES (1 mM EDTA) pH 5.0, 30 °C; Py24 titrated into 3c; one-site fit.

In experiment [12] the test system is FPy24 (DNA, i motif) GACCCCGCCCCCGGCCCGCCCCGG
The experiment is described as follows: MST. To be noted: 100 mM KCl (annealing buffer); 1 μM DNA; assay pH not stated.

The subject of experiment [13] is biotin-Hairpin (duplex DNA) (DNA, hairpin, HEG linker between nucleotides 10 and 11 (joins the two TATAGCTATA halves)) TATAGCTATATATAGCTATA
Nature of the experiment: SPR. To be noted: 100 mM KCl; 20 mM Tris-HCl pH 7.4, 25 °C; tested up to 50 μM.

Experiment [14] has as its system FPu24 (DNA, G4) CCGGGGCGGGCCGGGGGCGGGGTC
The experiment is described as follows: MST. The settings on record: 100 mM KCl (annealing buffer); 1 μM DNA; assay pH not stated.

Experiment [15] has as its system biotin-Pu24 (VEGF G-quadruplex) (DNA, G4) CCGGGGCGGGCCGGGGGCGGGGTC
Nature of the experiment: SPR. The settings on record: 100 mM KCl; 20 mM Tris-HCl pH 7.4, 25 °C; tested up to 50 μM. This is another data set of the same source.

The test system of experiment [16] is FHairpin (duplex DNA) (DNA, hairpin, HEG linker between nucleotides 10 and 11 (joins the two TATAGCTATA halves)) TATAGCTATATATAGCTATA
The experiment is described as follows: MST. To be noted: 1 μM DNA; assay buffer not stated.

In experiment [17] the test system is PDGFR-β (DNA, i motif) GCGTCCACCCTCCCTGCCCCGCCGCCCCCCCTTCTCCCAGC
Nature of the experiment: TO displacement, fluorescence. The settings on record: 100 mM KCl (annealing buffer); 1 μM DNA, 2 μM thiazole orange displaced; b21 gives lower bound of range as 8.01.

Experiment [18] relates to Fc-kit (DNA, i motif) CCCCTCCCTCGCGCCCGCCCG
Nature of the experiment: MST. To be noted: 100 mM KCl (annealing buffer); 1 μM DNA; assay pH not stated.

The test system of experiment [19] is FKRAS (DNA, i motif) GCCCGGCCCCCGCTCCTCCCCCGCCGGCCCGGCCCGGCCCCCTCCTTCTCCCCG
The experiment is described as follows: MST. The settings on record: 100 mM KCl (annealing buffer); 1 μM DNA; assay pH not stated.

Regarding `CC1(C)CC[C@]2(C(=O)N3CCC(N4CCCCC4)CC3)CC[C@]3(C)C(=CC[C@@H]4[C@@]5(C)CC[C@H](O)C(C)(C)[C@@H]5CC[C@]43C)[C@@H]2C1`, the KD in [1], in experiment [2] and in experiment [3] (tested up to 50 μM) was above 50 µM each time.
For `CC1(C)CC[C@]2(C(=O)NCCCNCCNCCCN)CC[C@]3(C)C(=CC[C@@H]4[C@@]5(C)CC[C@H](O)C(C)(C)[C@@H]5CC[C@]43C)[C@@H]2C1`, the KD in experiment [4] is 95.1 µM; in experiment [5], 14.4 µM; in experiment [11], 1.13 µM; in experiment [12], 1.14 µM; in experiment [13], above 50 µM; in experiment [14], 47.9 µM. The dissociation constant (KD) was above 50 µM in experiment [15]; 1.95 µM in [3] (b20 prints 1.93); 91.4 µM in [16]; 43.3 µM in [18]; 37.8 µM in experiment [19]. The DC50 came to 8.29 µM in experiment [6]; 3.19 µM in [7]; 14.7 µM in [8]; 16.1 µM in experiment [9]; 13.1 µM in experiment [10]; 8.08 µM in experiment [17].
For `CC1(C)CC[C@]2(C(=O)NCCNC(=O)/C=C/c3ccc(O)c(O)c3)CC[C@]3(C)C(=CC[C@@H]4[C@@]5(C)CC[C@H](O)C(C)(C)[C@@H]5CC[C@]43C)[C@@H]2C1`, the KD was above 50 µM in [13], above 50 µM in experiment [15] and 3.09 µM in experiment [3].
As to `CCN(CC)CCNC(=O)C1=C[C@]2(C)[C@H]3CC=C4[C@@H]5CC(C)(C)CC[C@]5(C(=O)OC)CC[C@@]4(C)[C@]3(C)CC[C@H]2C(C)(C)C1=O`, the equilibrium dissociation constant (KD) in experiment [1], in experiment [2] and in experiment [3] (tested up to 50 μM) was above 50 µM each time.
As for `CCOC(=O)Cn1cc(CNC(=O)[C@]23CCC(C)(C)C[C@H]2C2=CC[C@@H]4[C@@]5(C)CC[C@H](O)C(C)(C)[C@@H]5CC[C@@]4(C)[C@]2(C)CC3)nn1`, the KD in experiment [1], in [2] and in experiment [3] (tested up to 50 μM) was above 50 µM throughout.
For the molecule `COC(=O)[C@]12CCC(C)(C)C[C@H]1C1=CC[C@@H]3[C@@]4(C)C=C(C(=O)O)C(=O)C(C)(C)[C@@H]4CC[C@@]3(C)[C@]1(C)CC2`, the dissociation constant KD in [1], in [2] and in experiment [3] (tested up to 50 μM) was above 50 µM each time.
For the molecule `COC(=O)[C@]12CCC(C)(C)C[C@H]1[C@H]1C(=O)C[C@@H]3[C@@](C)(CCC(=O)NCCCN(C)C)[C@H](C(C)(C)O)CC[C@@]3(C)[C@]1(C)CC2`, the KD in experiment [1], in experiment [2] and in experiment [3] (tested up to 50 μM) was above 50 µM throughout.
On to `Cc1cn(CC(=O)NCCCNCCNCCCNC(=O)[C@]23CCC(C)(C)C[C@H]2C2=CC[C@@H]4[C@@]5(C)CC[C@H](O)C(C)(C)[C@@H]5CC[C@@]4(C)[C@]2(C)CC3)c(=O)[nH]c1=O`, for which the KD in experiment [13] was above 50 µM; in experiment [15] it was above 50 µM; in [3] it was 5.01 µM.
